Legend:
Jurkat.LC13 line = assay: Activation of control Jurkat.LC13 line in the presence of C1R.HLA-B8 cells; type: cell-based, human
Source text: Next, to formally establish whether 7-hydroxy-6-methyl-8-ribityl lumazine and/or its precursor, 6,7-dimethyl-8-ribityl lumazine, could activate MAIT cells, both compounds were chemically synthesized their ability to enable MR1 refolding and to activate Jurkat.MAIT cells and human MAIT cells from peripheral blood tested. […] Thus, direct precursors of riboflavin biosynthesis activate MAIT cells.

[1] = test system: human MAIT cells from peripheral blood; assay: Activation of primary MAIT cells from PBMCs (CD69, IFN-γ, TNF-α); type: cell-based; settings: PBMCs with C1R cells expressing MR1
Procedure: PBMCs from a healthy donor were mixed with C1R-huMR1 cells (10^5 each/well). Salmonella SL1344 supernatant (2 μl) from cultures grown in LB supplemented with 25 μg/ml streptomycin (Sigma) for 4 hr at 37° C., or compounds (35A, 36A, 48G: 25 μg/ml final, A-6FP: 10 μM final) or PMA (2 ng/ml+ionomycin (1 ng/ml) added in a total volume of 220 μl RF-10, and incubated overnight at 37° C. Cells were stained with anti-CD3-PE-Cy7 (eBioscience, 20 μg/ml), anti-CD4-APC-Cy7 (Biolegend, 1.7 μg/ml), anti-CD161-APC (Miltenyi Biotec, 1:50), FITC-conjugated D5 (anti-MAIT TCR, 10 μg/ml) and either anti-CD69-PE (BD Biosciences 1:50), anti-IFNγ-PE (BD Pharmingen 10 μg/ml) or anti-TNFα-PE (BD Pharmingen 10 μg/ml), and analyzed by flow cytometry using a Canto II cytometer and Diva software. For intracellular cytokine staining, brefeldin A (10 μg/ml) was added to the assay after the first 1 hr and the incubation allowed to proceed overnight. Cells were fixed with 1% parformaldehyde after staining for surface markers and permeabilised with 1% saponin during cytokine stains. MAIT cells were defined as CD3^+, CD4^−, CD161^+, D5^+ after gating on PBMCs using FSC and SSC.
PBMCs from a healthy donor were mixed with C1R cells expressing MR1 (10^5 each/well). Salmonella SL1344 supernatant (2 μl) from cultures grown in LB supplemented with 25 μg/ml streptomycin (Sigma) for 4 hr at 37° C., or compounds (RL-6,7-diMe, RL-6-Me-7-OH, 6FP: 76.2 μM final, rRL-6-HM: 0.152 μM final) or PMA (2 ng/ml+ionomycin (1 ng/ml) added in a total volume of 220 μl RF-10, and incubated overnight at 37° C. Cells were stained with anti-CD3-PE-Cy7 (eBioscience, 20 μg/ml), anti-CD4-APC-Cy7 (Biolegend, 1.7 μg/ml), anti-CD161-APC (Miltenyi Biotec, 1:50), FITC-conjugated D5 (anti-MAIT TCR, 10 μg/ml) and either anti-CD69-PE (BD Biosciences 1:50), anti-IFNγ-PE (BD Pharmingen 10 μg/ml) or anti-TNFα-PE (BD Pharmingen 10 μg/ml), and analyzed by flow cytometry using a Canto II cytometer and Diva software. […] CD69 expression was analysed by flow cytometry. […]

## Cc1nc2c(=O)[nH]c(=O)nc-2n(C[C@H](O)[C@H](O)[C@H](O)CO)c1C [Compound 1, 6,7-dimethyl-8-D-ribityllumazine]
Jurkat.LC13 line
  Activation of control Jurkat.LC13 line: failed to activate
[1]
  Activation of MAIT cells (CD69 upregulation, intracellular IFN-γ and TNF-α): specifically activated
